In patent US11083707B2, “Substituted indoline derivatives as dengue viral replication inhibitors” (JANSSEN PHARMACEUTICALS, INC., priority 2017, dated 2021) one finds EC50, CC50 and melting point data, which are given here for eight compounds.

The EC50 is the concentration that produces a half-maximal response. The term melting point denotes the temperature, or range, at which the solid turns liquid.

Structures are written as SMILES. Like-named read-outs stand apart in the source and are kept apart here.

One data set relates to DENV-2 16681 strain. The experiment in a line: DENV-2 antiviral assay (eGFP fluorescence, Vero cells). The note with it: DENV-2 16681 eGFP, MOI 0.5, 3 days. It is filed as cell-based, Dengue virus. The procedure: The antiviral activity of all the compounds of the invention was tested against the DENV-2 16681 strain which was labeled with enhanced green fluorescent protein (eGPF). The culture medium consists of minimal essential medium supplemented with 2% of heat-inactivated fetal calf serum, 0.04% gentamycin (50 mg/mL) and 2 mM of L-glutamine. Vero cells, obtained from ECACC, were suspended in culture medium and 25 μL was added to 384-well plates (2500 cells/well), which already contain the antiviral compounds. Typically, these plates contain a 5-fold serial dilution of 9 dilution steps of the test compound at 200 times the final concentration in 100% DMSO (200 nL). […] Finally, each plate contains wells which are assigned as virus controls (containing cells and virus in the absence of compound), cell controls (containing cells in the absence of virus and compound) and medium controls (containing medium in the absence of cells, virus and compounds). To the wells assigned as medium control, 25 μL of culture medium was added instead of Vero cells. Once the cells were added to the plates, the plates were incubated for 30 minutes at room temperature to allow the cells to distribute evenly within the wells. Next, the plates were incubated in a fully humidified incubator (37° C., 5% CO2) until the next day. Then, DENV-2 strain 16681, labeled with eGFP, was added at a multiplicity of infection (MOI) of 0.5. Therefore, 15 μL of virus suspension was added to all the wells containing test compound and to the wells assigned as virus control. In parallel, 15 μL of culture medium was added to the medium and cell controls. Next, the plates were incubated for 3 days in a fully humidified incubator (37° C., 5% CO2). At the day of the read out, the eGFP fluorescence was measured using an automated fluorescence microscope at 488 nm (blue laser). Using an in-house LIMS system, inhibition dose response curves for each compound were calculated and the half maximal effective concentration (EC50) was determined. Therefore, the percent inhibition (I) for every test concentration is calculated using the following formula: I=100*(ST-SCC)/(SVC-SCC), ST, SCC and SVC are the amount of eGFP signal in the test compound, cell control and virus control wells, respectively. The EC50 represents the concentration of a compound at which the virus replication is inhibited with 50%, as measured by a 50% reduction of the eGFP fluorescent intensity compared to the virus control. The EC50 is calculated using linear interpolation (Table 1).

Data set [1] is described as follows: in vitro. Conditions: African green monkey.
The next data set concerns DENV-4 strain H241. Kind of data set: Tetravalent RT-qPCR assay Protocol A, serotype 4. The data set is classed as cell-based. The note with it: Dengue virus, DENV4, 72 h; RT-qPCR serotype 4 H241, Vero cells, day 3. The procedure:
(§1) The antiviral activity of the compounds of the invention was tested against DENV-1 strain TC974#666 (NCPV), DENV-2 strain 16681, DENV-3 strain H87 (NCPV) and DENV-4 strain H241 (NCPV) in a RT-qPCR assay. Therefore, Vero cells were infected with either DENV-1, or -2, or -3, or -4 in the presence or absence of test compounds. At day 3 post-infection, the cells were lysed and cell lysates were used to prepare cDNA of both a viral target (the 3′UTR of DENV; Table 2) and a cellular reference gene (β-actin, Table 2). Subsequently, a duplex real time PCR was performed on a Lightcycler480 instrument. The generated Cp value is inversely proportional to the amount of RNA expression of these targets. Inhibition of DENV replication by a test compound results in a shift of Cp's for the 3′UTR gene. On the other hand, if a test compound is toxic to the cells, a similar effect on β-actin expression will be observed. The comparative ΔΔCp method is used to calculate EC50, which is based on the relative gene expression of the target gene (3′UTR) normalized with the cellular housekeeping gene (β-actin). In addition, CC50 values are determined based on the Cp values acquired for the housekeeping gene β-actin.
(§2) The culture medium consisted of minimal essential medium supplemented with 2% of heat-inactivated fetal calf serum, 0.04% gentamycin (50 mg/mL) and 2 mM of L-glutamine. Vero cells, obtained from ECACC, were suspended in culture medium and 75 μL/well was added in 96-well plates (10000 cells/well), which already contain the antiviral compounds. […] In addition, each plate contains wells which are assigned as virus controls (containing cells and virus in the absence of compound) and cell controls (containing cells in the absence of virus and compound). Once the cells were added in the plates, the plates were incubated in a fully humidified incubator (37° C., 5% CO2) until the next day. Dengue viruses serotype-1, 2, 3 and 4 were diluted in order to obtain a Cp of ˜22-24 in the assay. Therefore, 25 μL of virus suspension was added to all the wells containing test compound and to the wells assigned as virus control. In parallel, 25 μL of culture medium was added to the cell controls. Next, the plates were incubated for 3 days in a fully humidified incubator (37° C., 5% CO2). After 3 days, the supernatant was removed from the wells and the cells were washed twice with ice-cold PBS (˜100 μL). The cell pellets within the 96-well plates were stored at −80° C. for at least 1 day. Next, RNA was extracted using the Cells-to-CT™ lysis kit, according to the manufacturer's guideline (Life Technologies). The cell lysates can be stored at −80° C. or immediately used in the reverse transcription step.
(§3) In preparation of the reverse transcription step, mix A (table 3A) was prepared and 7.57 μL/well was dispensed in a 96-well plate. After addition of 5 μL of the cell lysates, a five minute denaturation step at 75° C. was performed (table 3B). Afterwards, 7.43 μL of mix B was added (table 3C) and the reverse transcription step was initiated (table 3D) to generate cDNA.
(§4) Finally, a RT-qPCR mix was prepared, mix C (table 4A), and 22.02 μL/well was dispensed in 96-well LightCycler qPCR plates to which 3 μL of cDNA was added and the qPCR was performed according to the conditions in table 4B on a LightCycler 480.
(§5) Using the LightCycler software and an in-house LIMS system, dose response curves for each compound were calculated and the half maximal effective concentration (EC50) and the half maximal cytotoxic concentration (CC50) were determined (Tables 5-8).
A general note: In qPCR the cycle at which signal appears reflects the starting amount.

For a further data set, the system named is DENV-2 strain 16681. Kind of data set: Tetravalent RT-qPCR assay Protocol A, serotype 2. The data set is classed as cell-based. The note with it: Dengue virus. The procedure: as §1, §2, §3, §4, §5
Another data set deals with Vero cells. Conditions: African green monkey.
In a further data set the test system is DENV-3 strain H87. The experiment in a line: Tetravalent RT-qPCR assay Protocol A, serotype 3. It is filed as cell-based. Conditions: Dengue virus, DENV3, 72 h; RT-qPCR serotype 3 H87, Vero cells, day 3. The procedure:
as §1, §2, §3, §4, §5

Data set [2] is described as follows: in vitro. Conditions: African green monkey. The data set is classed as cell-based. As for the experimental part:
as §1, §2, §3, §4, §5

The test system of a further data set is DENV-1 strain TC974#666. Kind of data set: Tetravalent RT-qPCR assay Protocol A, serotype 1. It is filed as cell-based. Conditions: Dengue virus, DENV1, 72 h; RT-qPCR serotype 1 TC974#666, Vero cells, day 3. As for the experimental part:
as §1, §2, §3, §4, §5

Where [3] appears, read: DENV2, 72 h, RT-qPCR serotype 2 16681, Vero cells, day 3, read-out: EC50.

On to `COc1cc(NC(C(=O)N2CCc3c(C)cc(OC(F)(F)F)cc32)c2ccc(Cl)cc2OCCCC(=O)O)cc(-n2cncn2)c1` (racemic) [Compound 16, 4-(5-chloro-2-(1-((3-methoxy-5-(1H-1,2,4-triazol-1-yl)phenyl)amino)-2-(4-methyl-6-(trifluoromethoxy)indolin-1-yl)-2-oxoethyl)phenoxy)butanoic acid], for which the melting point was 214 °C. The compound further showed an EC50 in the data set with DENV-2 16681 strain (Dengue virus, DENV2, Vero, 72 h) of 0.11 nM. In “in vitro [1]”, this compound registered a CC50 of 11000 nM.

As for `COc1cc(NC(C(=O)N2CCc3ccc(C(F)(F)F)cc32)c2ccc(F)cc2OCCO)cc(-n2cncn2)c1` (single isomer, unassigned) [Compound 1B], the EC50 turned out to be 180 nM in the data set with DENV-4 strain H241; 2.8 nM with DENV-2 16681 strain; 2.4 nM with DENV-2 strain 16681 (setting [3]); 25 nM in the data set on DENV-3 strain H87; 1.5 nM in the data set on DENV-1 strain TC974#666. The compound further came in with a CC50 with Vero cells of 9800 nM. In “in vitro [2]”, the CC50 at 3 days was greater than 2500 nM.

In the case of `COc1cc(NC(C(=O)N2CCc3cc(OC)c(C(F)(F)F)cc32)c2ccc(F)cc2OCCO)cc(-n2cncn2)c1` (single isomer, unassigned) [Compound 2B], the EC50 was 150 nM in the data set on DENV-4 strain H241; 1.8 nM in the data set on DENV-2 16681 strain; 2.1 nM in the data set on DENV-2 strain 16681 (setting [3]); 38 nM in the data set on DENV-3 strain H87; 6 nM in the data set on DENV-1 strain TC974#666. Besides, in the data set with Vero cells, the CC50 was found to be 10000 nM. This compound also yielded a CC50 at 3 days in “in vitro [2]” greater than 2500 nM.

`COc1cc(NC(C(=O)N2CCc3ccc(C(F)(F)F)cc32)c2ccc(Cl)cc2OCCO)cc(-n2cncn2)c1` (single isomer, unassigned) [Compound 4B]: the EC50 was found to be 76 nM in the data set with DENV-4 strain H241; 1 nM in the data set with DENV-2 16681 strain; 0.45 nM with DENV-2 strain 16681 (setting [3]); 11 nM in the data set with DENV-3 strain H87; 0.57 nM with DENV-1 strain TC974#666. The CC50 with Vero cells is 11000 nM. Besides, the CC50 at 3 days in “in vitro [2]” was greater than 2500 nM.

Consider `COc1cc(NC(C(=O)N2CCc3cc(OC)c(C(F)(F)F)cc32)c2ccc(Cl)cc2OCCO)cc(-n2cncn2)c1` (single isomer, unassigned) [Compound 5B], for which the EC50 in the data set on DENV-4 strain H241 was determined as 90 nM; in the data set with DENV-2 16681 strain, 0.62 nM; with DENV-2 strain 16681 (setting [3]), 0.52 nM; in the data set with DENV-3 strain H87 it was 15 nM; with DENV-1 strain TC974#666, 2 nM. For the same compound, the CC50 with Vero cells turned out to be 9200 nM. In the data set “in vitro [2]”, the CC50 at 3 days is greater than 2500 nM.

As to `COc1cc(NC(C(=O)N2CCc3ccc(C(F)(F)F)cc32)c2ccc(Cl)cc2OCCCC(=O)O)cc(-n2cncn2)c1` (single isomer, unassigned) [Compound 11B], the concentration for a half-maximal effect (EC50) worked out at 20 nM with DENV-4 strain H241; 0.2 nM in the data set with DENV-2 16681 strain; 0.059 nM with DENV-2 strain 16681 (setting [3]); 6.5 nM with DENV-3 strain H87; 0.095 nM in the data set with DENV-1 strain TC974#666. Further, the CC50 with Vero cells was found to be 12000 nM. The compound also had a CC50 at 3 days in the data set “in vitro [2]” greater than 2500 nM.

As for `COc1cc(NC(C(=O)N2CCc3ccc(OC(F)(F)F)cc32)c2ccc(Cl)cc2OCCC(C)(C)C(=O)O)cc(-n2cncn2)c1` (single isomer, unassigned) [Compound 14B], the half-maximal effective concentration (EC50) in the data set with DENV-4 strain H241 stood at 23 nM; with DENV-2 16681 strain, 0.27 nM; in the data set with DENV-2 strain 16681 (DENV2, Vero, 72 h) it was 0.16 nM; in the data set with DENV-3 strain H87, 5.5 nM; in the data set on DENV-1 strain TC974#666 it was 0.22 nM. Moreover, in the data set on Vero cells, the CC50 is 9400 nM. Also, the CC50 at 3 days in the data set “in vitro [2]” amounted to 2300 nM.

Regarding `COc1cc(NC(C(=O)N2CCc3c(C)cc(OC(F)(F)F)cc32)c2ccc(Cl)cc2OCCCC(=O)O)cc(-n2cncn2)c1` (single isomer, unassigned) [Compound 16B], the EC50 in the data set with DENV-4 strain H241 is 5.3 nM; in the data set on DENV-2 16681 strain it was 0.069 nM; in the data set with DENV-2 strain 16681 (setting [3]), 0.055 nM; in the data set on DENV-3 strain H87, 0.87 nM; in the data set on DENV-1 strain TC974#666 it was 0.092 nM. Also, the CC50 in the data set on Vero cells came to 6200 nM. Moreover, the CC50 at 3 days in “in vitro [2]” is greater than 1000 nM.
